Measurements taken from ChEMBL document CHEMBL5120841, “Discovery of novel pleuromutilin derivatives as potent antibacterial agents” (2022).
Converted amounts (≈) assume the structure as drawn. The source made the active and inactive calls. No cut-off for these calls is given here.

Tests used:
[1] = system: Staphylococcus epidermidis; test: Antibacterial activity against methicillin-resistant Staphylococcus epidermidis ATCC 51625 assessed as bacterial growth inhibition incubated for 18 to 24 hrs by microtiter dilution method; format: functional; settings: time 18-24 hrs
[2] = system: Staphylococcus aureus; test: Antibacterial activity against Staphylococcus aureus ATCC 25923 assessed as bacterial growth inhibition incubated for 18 to 24 hrs by microtiter dilution method; format: functional; settings: time 18-24 hrs
[3] = system: Staphylococcus aureus; test: Antibacterial activity against methicillin-resistant Staphylococcus aureus BNCC 337371 assessed as bacterial growth inhibition incubated for 18 to 24 hrs by microtiter dilution method; format: functional; settings: time 18-24 hrs
[4] = system: Enterococcus faecalis; test: Antibacterial activity against Enterococcus faecalis assessed as bacterial growth inhibition incubated for 18 to 24 hrs by microtiter dilution method; format: functional; settings: time 18-24 hrs
[5] = system: Bacillus subtilis; test: Antibacterial activity against Bacillus subtilis assessed as bacterial growth inhibition incubated for 18 to 24 hrs by microtiter dilution method; format: functional; settings: time 18-24 hrs
[6] = system: Escherichia coli; test: Antibacterial activity against Escherichia coli CICC 10389 assessed as bacterial growth inhibition incubated for 18 to 24 hrs by microtiter dilution method; format: functional; settings: time 18-24 hrs
[7] = system: Staphylococcus aureus; test: Antibacterial activity against methicillin-resistant Staphylococcus aureus BNCC 337371 assessed as reduction on bacterial count at 6X MIC incubated for 24 hrs by time killing assay; format: functional
[8] = system: Staphylococcus aureus; test: Antibacterial activity against Staphylococcus aureus ATCC 25923 assessed as reduction on bacterial count at 6X MIC incubated for 24 hrs by time killing assay; format: functional
[9] = system: Staphylococcus aureus; test: Antibacterial activity against methicillin-resistant Staphylococcus aureus BNCC 337371 infected in Kunming mouse lung assessed as reduction on neutrophil infiltration at 15 mg/kg,ip measured after 7 days by hematoxylin and eosin staining based light microscopic analysis; format: functional, organism-based; settings: time 7.0 day
[10] = system: Staphylococcus aureus; test: Antibacterial activity against methicillin-resistant Staphylococcus aureus BNCC 337371 infected in Kunming mouse lung assessed as reduction on bacterial growth at 15 mg/kg,ip dosed measured after 7 days by 10-fold dilution method; format: functional; settings: time 7 day
[11] = system: Staphylococcus aureus; test: Antibacterial activity against methicillin-resistant Staphylococcus aureus BNCC 337371 infected in Kunming mouse lung assessed as reduction on lymphocyte infiltration at 15 mg/kg,ip measured after 7 days by hematoxylin and eosin staining based light microscopic analysis; format: functional, organism-based; settings: time 7.0 day
[12] = system: Staphylococcus aureus; test: Antibacterial activity against methicillin-resistant Staphylococcus aureus BNCC 337371 infected in Kunming mouse lung assessed as reduction on lymphocyte infiltration at 40 mg/kg,ip measured after 7 days by hematoxylin and eosin staining based light microscopic analysis; format: functional, organism-based; settings: time 7.0 day
[13] = system: Staphylococcus aureus; test: Antibacterial activity against methicillin-resistant Staphylococcus aureus BNCC 337371 infected in Kunming mouse lung assessed as reduction on alveolar diaphragm thickening at 15 mg/kg,ip measured after 7 days by hematoxylin and eosin staining based light microscopic analysis; format: functional, organism-based; settings: time 7.0 day
[14] = system: Staphylococcus aureus; test: Antibacterial activity against methicillin-resistant Staphylococcus aureus BNCC 337371 infected in Kunming mouse lung assessed as reduction on bacterial growth at 40 mg/kg,ip dosed measured after 7 days by 10-fold dilution method; format: functional; settings: time 7 day
[15] = system: Staphylococcus aureus; test: Antibacterial activity against methicillin-resistant Staphylococcus aureus BNCC 337371 infected in Kunming mouse lung assessed as reduction on alveolar diaphragm thickening at 40 mg/kg,ip measured after 7 days by hematoxylin and eosin staining based light microscopic analysis; format: functional, organism-based; settings: time 7.0 day
[16] = system: Staphylococcus aureus; test: Antibacterial activity against methicillin-resistant Staphylococcus aureus BNCC 337371 infected in Kunming mouse assessed as reduction on bacterial growth by measuring survival rate at ip dosed measured after 7 days by Bliss method; format: functional; settings: BNCC 337371, 168 h, time 7 day
[17] = system: Staphylococcus aureus; test: Antibacterial activity against methicillin-resistant Staphylococcus aureus BNCC 337371 infected in Kunming mouse lung assessed as reduction on neutrophil infiltration at 40 mg/kg,ip measured after 7 days by hematoxylin and eosin staining based light microscopic analysis; format: functional, organism-based; settings: time 7.0 day
[18] = system: Staphylococcus aureus; test: Antibacterial activity against methicillin-resistant Staphylococcus aureus BNCC 337371 infected in Kunming mouse lung assessed as reduction on pulmonary fibrosis at 15 mg/kg,ip measured after 7 days by hematoxylin and eosin staining based light microscopic analysis; format: functional, organism-based; settings: time 7.0 day

Structure (SMILES)	MIC [1]	MIC [2]	MIC [3]	MIC [4]	MIC [5]	MIC [6]	Activity [7]	Activity [8]	Activity [9]	Activity [10]	Activity [11]	Activity [12]	Activity [13]	Activity [14]	Activity [15]	ED50 [16]	Activity [17]	Activity [18]
C=C[C@]1(C)C[C@@H](OC(=O)CSc2nc(C)c(C(=O)OC)c(CC)n2)[C@]2(C)[C@H](C)CC[C@]3(CCC(=O)[C@H]32)[C@@H](C)[C@@H]1O	0.0625 µg/mL (≈ 0.109 µM)	0.0313 µg/mL (≈ 0.0546 µM)	0.0625 µg/mL (≈ 0.109 µM)	> 16 µg/mL	4 µg/mL (≈ 6.98 µM)	> 16 µg/mL	–	–	–	–	–	–	–	–	–	–	–	–
C=C[C@]1(C)C[C@@H](OC(=O)CSc2nc(C)c(C(=O)OC)c(C)n2)[C@]2(C)[C@H](C)CC[C@]3(CCC(=O)[C@H]32)[C@@H](C)[C@@H]1O	0.0313 µg/mL (≈ 0.056 µM)	≤ 0.0156 µg/mL	≤ 0.0156 µg/mL	> 16 µg/mL	2 µg/mL (≈ 3.58 µM)	> 16 µg/mL	Active	Active	–	–	–	–	–	–	–	–	–	–
C=C[C@]1(C)C[C@@H](OC(=O)CSc2nc(C)c(C(=O)OC)c(CCC)n2)[C@]2(C)[C@H](C)CC[C@]3(CCC(=O)[C@H]32)[C@@H](C)[C@@H]1O	0.0625 µg/mL (≈ 0.107 µM)	0.25 µg/mL (≈ 0.426 µM)	0.125 µg/mL (≈ 0.213 µM)	> 16 µg/mL	16 µg/mL (≈ 27.3 µM)	> 16 µg/mL	–	–	–	–	–	–	–	–	–	–	–	–
C=C[C@]1(C)C[C@@H](OC(=O)CSC2=NC(C)=C(C(C)=O)C(C)N2)[C@]2(C)[C@H](C)CC[C@]3(CCC(=O)[C@H]32)[C@@H](C)[C@@H]1O (stereo partly specified)	0.25 µg/mL (≈ 0.459 µM)	0.125 µg/mL (≈ 0.229 µM)	0.25 µg/mL (≈ 0.459 µM)	> 16 µg/mL	> 16 µg/mL	> 16 µg/mL	–	–	–	–	–	–	–	–	–	–	–	–
C=C[C@]1(C)C[C@@H](OC(=O)CSCCN(CC)CC)[C@]2(C)[C@H](C)CC[C@]3(CCC(=O)[C@H]32)[C@@H](C)[C@@H]1O.O=C(O)/C=C/C(=O)O [TIAMULIN FUMARATE]	0.5 µg/mL	0.5 µg/mL	0.5 µg/mL	> 16 µg/mL	> 16 µg/mL	> 16 µg/mL	–	–	Active	1.68 log10CFU/ml	Active	Active	Active	2.56 log10CFU/ml	Active	22.9 mg/kg	Active	Active
C=C[C@]1(C)C[C@@H](OC(=O)CS[C@@H]2C[C@H]3CC[C@@H](C2)N3C)[C@]2(C)[C@H](C)CC[C@]3(CCC(=O)[C@H]32)[C@@H](C)[C@@H]1O [RETAPAMULIN]	0.125 µg/mL (≈ 0.241 µM)	0.25 µg/mL (≈ 0.483 µM)	0.125 µg/mL (≈ 0.241 µM)	> 16 µg/mL	8 µg/mL (≈ 15.5 µM)	> 16 µg/mL	3.3 log10CFU/ml	2.25 log10CFU/ml	–	–	–	–	–	–	–	–	–	–
C=C[C@]1(C)C[C@@H](OC(=O)CSC2=NC(CCCC)=C(C(=O)OC)C(C)N2)[C@]2(C)[C@H](C)CC[C@]3(CCC(=O)[C@H]32)[C@@H](C)[C@@H]1O (stereo partly specified)	1 µg/mL (≈ 1.66 µM)	1 µg/mL (≈ 1.66 µM)	1 µg/mL (≈ 1.66 µM)	> 16 µg/mL	> 16 µg/mL	> 16 µg/mL	–	–	–	–	–	–	–	–	–	–	–	–
C=C[C@]1(C)C[C@@H](OC(=O)CSC2=NC(CC)=C(C(=O)OC)C(C)N2)[C@]2(C)[C@H](C)CC[C@]3(CCC(=O)[C@H]32)[C@@H](C)[C@@H]1O (stereo partly specified)	0.125 µg/mL (≈ 0.217 µM)	0.5 µg/mL (≈ 0.87 µM)	0.25 µg/mL (≈ 0.435 µM)	> 16 µg/mL	8 µg/mL (≈ 13.9 µM)	> 16 µg/mL	–	–	–	–	–	–	–	–	–	–	–	–
C=C[C@]1(C)C[C@@H](OC(=O)CSc2nc(C)c(C(=O)OC(C)CC)c(C)n2)[C@]2(C)[C@H](C)CC[C@]3(CCC(=O)[C@H]32)[C@@H](C)[C@@H]1O (stereo partly specified)	0.5 µg/mL (≈ 0.832 µM)	0.5 µg/mL (≈ 0.832 µM)	0.5 µg/mL (≈ 0.832 µM)	> 16 µg/mL	> 16 µg/mL	> 16 µg/mL	–	–	–	–	–	–	–	–	–	–	–	–
C=C[C@]1(C)C[C@@H](OC(=O)CSc2nc(C)c(C(=O)OC)c(CC(C)C)n2)[C@]2(C)[C@H](C)CC[C@]3(CCC(=O)[C@H]32)[C@@H](C)[C@@H]1O	0.5 µg/mL (≈ 0.832 µM)	0.25 µg/mL (≈ 0.416 µM)	0.25 µg/mL (≈ 0.416 µM)	> 16 µg/mL	> 16 µg/mL	> 16 µg/mL	–	–	–	–	–	–	–	–	–	–	–	–
C=C[C@]1(C)C[C@@H](OC(=O)CSc2nc(C)c(C(=O)OCCC)c(C)n2)[C@]2(C)[C@H](C)CC[C@]3(CCC(=O)[C@H]32)[C@@H](C)[C@@H]1O	0.125 µg/mL (≈ 0.213 µM)	0.25 µg/mL (≈ 0.426 µM)	0.125 µg/mL (≈ 0.213 µM)	> 16 µg/mL	4 µg/mL (≈ 6.82 µM)	> 16 µg/mL	–	–	–	–	–	–	–	–	–	–	–	–
C=C[C@]1(C)C[C@@H](OC(=O)CSc2nc(C)c(C(=O)OC)c(C(CC)CC)n2)[C@]2(C)[C@H](C)CC[C@]3(CCC(=O)[C@H]32)[C@@H](C)[C@@H]1O	0.5 µg/mL (≈ 0.813 µM)	0.25 µg/mL (≈ 0.407 µM)	0.25 µg/mL (≈ 0.407 µM)	> 16 µg/mL	> 16 µg/mL	> 16 µg/mL	–	–	–	–	–	–	–	–	–	–	–	–
